# Data taken from US11427548B2 (Arvinas Operations, Inc., priority 2015, dated 2022).
# Like-named read-outs stand apart in the source and are kept apart here.
# Molecular target: T1, Androgen Receptor (Homo sapiens, UniProt P10275)
# T1 construct: endogenous in cells; host or cells: VCaP cells
# T1 sequence (P10275 1-920): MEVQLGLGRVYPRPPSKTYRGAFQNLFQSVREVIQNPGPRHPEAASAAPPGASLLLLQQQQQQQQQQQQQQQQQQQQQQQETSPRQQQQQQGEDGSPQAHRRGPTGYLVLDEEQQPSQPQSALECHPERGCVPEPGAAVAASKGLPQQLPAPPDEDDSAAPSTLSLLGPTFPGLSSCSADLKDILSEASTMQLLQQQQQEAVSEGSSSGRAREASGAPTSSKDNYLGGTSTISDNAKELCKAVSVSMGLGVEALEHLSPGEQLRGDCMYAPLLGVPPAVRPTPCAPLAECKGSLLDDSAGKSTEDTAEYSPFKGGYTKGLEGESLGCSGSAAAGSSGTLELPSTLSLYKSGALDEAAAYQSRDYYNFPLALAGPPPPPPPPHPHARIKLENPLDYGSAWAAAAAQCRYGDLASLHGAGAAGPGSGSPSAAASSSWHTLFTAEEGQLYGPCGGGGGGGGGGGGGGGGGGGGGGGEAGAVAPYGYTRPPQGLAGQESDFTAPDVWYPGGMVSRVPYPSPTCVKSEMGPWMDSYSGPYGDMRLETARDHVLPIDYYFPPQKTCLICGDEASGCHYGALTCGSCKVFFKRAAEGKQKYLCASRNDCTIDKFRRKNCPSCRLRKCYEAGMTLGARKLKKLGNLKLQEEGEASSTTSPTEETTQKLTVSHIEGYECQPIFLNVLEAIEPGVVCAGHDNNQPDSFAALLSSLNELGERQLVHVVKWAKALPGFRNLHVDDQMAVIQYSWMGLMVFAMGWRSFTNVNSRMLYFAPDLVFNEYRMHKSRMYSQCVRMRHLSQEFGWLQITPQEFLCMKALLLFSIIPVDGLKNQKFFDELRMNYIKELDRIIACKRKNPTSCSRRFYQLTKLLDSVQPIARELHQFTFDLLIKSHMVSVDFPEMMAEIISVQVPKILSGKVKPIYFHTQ
# Assay: Androgen Receptor ELISA assay (PathScan AR ELISA) in VCaP cells: AR degradation, Dmax and DC50
# Type: cell-based
# Summary of the method: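 VCaP cells, 30,000/well, grown ≥3 days in phenol red-free RPMI with 5% charcoal-stripped FBS; compound added in 0.1% DMSO with 0.1 nM R1881, 7 half-log doses, 24 h. Lysate AR quantified by PathScan sandwich ELISA, HRP/TMB read at 450 nm, giving DC50 and Dmax.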
# [1] = VCaP cells; Table 36; read-out: VCaP DC50
# [2] = VCaP, VCaP cells; Table 36; read-out: VCaP Dmax (%)
# [3] = VCaP cells; Table 35; read-out: VCaP DC50
# [4] = VCaP, VCaP cells; Table 35; read-out: VCaP Dmax (%)
# [5] = VCaP, VCaP cells; Table 34; read-out: VCaP Dmax (%)
# [6] = VCaP cells; Table 34; read-out: VCaP DC50
DC50 [1],Dmax [2],Compound,"Dmax (VCaP, read-out: VCaP Dmax (%))",further results
> 501 nM,26 to 50%,"Cc1ncsc1-c1ccc([C@H](C)NC(=O)[C@@H]2C[C@@H](O)CN2C(=O)[C@H](C(C)C)n2cc(-c3ccnc(N4CC[C@@H](Nc5ccc(C(=O)N[C@H]6C(C)(C)[C@H](Oc7ccc(C#N)c(Cl)c7)C6(C)C)cc5)C4)c3)cn2)cc1 [Example 596, (2S,4R)-1-((S)-2-(4-(2-((R)-3-((4-(((1r,3R)-3-(3-chloro-4-cyanophenoxy)-2,2,4,4-tetramethylcyclobutyl)carbamoyl)phenyl)amino)pyrrolidin-1-yl)pyridin-4-yl)-1H-pyrazol-1-yl)-3-methylbutanoyl)-4-hydroxy-N-((S)-1-(4-(4-methylthiazol-5-yl)phenyl)ethyl)pyrroli-dine-2-carboxamide]",–,–
–,–,"CC(C)(C)[C@H](NC(=O)COCC#CC#CCOc1ccc(N2C(=S)N(c3ccc(C#N)c(Cl)c3)C(=O)C2(C)C)cc1F)C(=O)N1C[C@H](O)C[C@H]1C(=O)NCc1ccc(-c2cnco2)cc1 [Example 60, (2S,4R)-1-[(2S)-2-{2-[(6-{4-[3-(3-chloro-4-cyanophenyl)-5,5-dimethyl-4-oxo-2-sulfanylideneimidazolidin-1-yl]-2-fluorophenoxy}hexa-2,4-diyn-1-yl)oxy]acetamido}-3,3-dimethylbutanoyl]-4-hydroxy-N-{[4-(1,3-oxazol-5-yl)phenyl]methyl}pyrrolidine-2-carboxamide]",51 to 70%,"DC50 (read-out: VCaP DC50; concentration that caused 50% Androgen Receptor degradation, VCaP cells): 51 to 500 nM"
< 50 nM,> 71%,"Cc1ncsc1-c1ccc([C@H](C)NC(=O)[C@@H]2C[C@@H](OC(=O)CCC(=O)O)CN2C(=O)[C@@H](NC(=O)COCCN2CCN(c3ccc(C(=O)N[C@H]4C(C)(C)[C@H](Oc5ccc(C#N)c(Cl)c5)C4(C)C)cn3)CC2)C(C)(C)C)cc1 [Example 862, 4-(((3R,5S)-1-((S)-2-(2-(2-(4-(5-(((1r,3r)-3-(3-chloro-4-cyanophenoxy)-2,2,4,4-tetramethylcyclobutyl)carbamoyl)pyridin-2-yl)piperazin-1-yl)ethoxy)acetamido)-3,3-dimethylbutanoyl)-5-(((S)-1-(4-(4-methylthiazol-5-yl)phenyl)ethyl)carbamoyl)pyrrolidin-3-yl)oxy)-4-oxobutanoic acid]",–,–
> 501 nM,< 25%,"Cc1ncsc1-c1ccc([C@H](C)NC(=O)[C@@H]2C[C@@H](O)CN2C(=O)[C@@H](NC(=O)CCCCN2C[C@H]3C[C@@H]2CN3c2ccc(C(=O)N[C@H]3C[C@H](Oc4ccc(C#N)c(Cl)c4)C3)cn2)C(C)(C)C)cc1 [Example 798, N-((1r,3R)-3-(3-chloro-4-cyanophenoxy)cyclobutyl)-6-((1R,4R)-5-(5-(((S)-1-((2S,4R)-4-hydroxy-2-(((S)-1-(4-(4-methylthiazol-5-yl)phenyl)ethyl)carbamoyl)pyrrolidin-1-yl)-3,3-dimethyl-1-oxobutan-2-yl)amino)-5-oxopentyl)-2,5-diazabicyclo[2.2.1]heptan-2-yl)nicotinamide]",–,–
–,–,Cc1nccn1-c1ccc([C@H](C)NC(=O)[C@@H]2C[C@@H](O)CN2C(=O)[C@@H](NC(=O)CNC(=O)c2ccc(Oc3ccc(C(=O)N[C@H]4C(C)(C)[C@H](Oc5ccc(C#N)c(Cl)c5)C4(C)C)cc3)cc2)C(C)(C)C)cc1 [Example 444],–,DC50 [3]: < 50 nM; Dmax [4]: > 71%
–,–,CC(C)(C)[C@H](NC(=O)COCCCOCCCCOc1ccc(N2C(=S)N(c3ccc(C#N)c(Cl)c3)C(=O)C2(C)C)cc1)C(=O)N1C[C@H](O)C[C@H]1C(=O)NCc1ccc(-c2cnco2)cc1 [Example 337],> 71%,DC50 (read-out: VCaP DC50; VCaP cells; Table 34): < 50 nM
–,–,Cc1ncsc1-c1ccc(CNC(=O)[C@@H]2C[C@@H](O)CN2C(=O)[C@@H](NC(=O)COCCCOc2ccc(C(=O)N[C@H]3C(C)(C)[C@H](Oc4ccc(C#N)c(Cl)c4)C3(C)C)cc2)C(C)(C)C)cc1 [Example 387],–,Dmax [5]: < 25%
–,–,Cc1ncsc1-c1ccc([C@H](C)NC(=O)[C@@H]2C[C@@H](O)CN2C(=O)[C@@H](NC(=O)COC[C@H](O)CCOc2ccc(-c3ccc(N4C(=S)N(c5ccc(C#N)c(C(F)(F)F)c5)C(=O)C4(C)C)cc3)cc2)C(C)(C)C)cc1 [Example 576],> 71%,DC50 (read-out: VCaP DC50; VCaP cells; Table 35): < 50 nM
> 501 nM,< 25%,"Cc1ncsc1-c1ccc([C@H](C)NC(=O)[C@@H]2C[C@@H](O)CN2C(=O)[C@H](NC(=O)CN2CCN(CCCc3ccc(C(=O)N[C@H]4C(C)(C)[C@H](Oc5ccc(C#N)c(Cl)c5)C4(C)C)cc3)CC2)C2COC2)cc1 [Example 750, (2S,4R)-1-((R)-2-(4-(4-(3-(4-(((1r,3r)-3-(3-chloro-4-caynophenoxy)-2,2,4,4-tetramethylcyclobutyl)carbamoyl)phenyl)propyl)piperazin-1-yl)acetamido)-2-(oxetan-3-yl)acetyl)-4-hydroxy-N-((S)-1-(4-(4-methylthiazol-5-yl)phenyl)ethyl)pyrrolidine-2-carboxamide]",–,–
–,–,Cc1ncsc1-c1ccc(CNC(=O)[C@@H]2C[C@@H](O)CN2C(=O)[C@@H](NC(=O)COCCCCNc2ccc(-c3ccc(N4C(=S)N(c5cnc(C#N)c(C(F)(F)F)c5)C(=O)C4(C)C)cc3)cc2)C(C)(C)C)cc1 [Example 391],–,DC50 [6]: < 50 nM; Dmax [5]: 51 to 70%
–,–,Cc1ncsc1-c1ccc(CNC(=O)[C@@H]2C[C@@H](O)CN2C(=O)[C@@H](NC(=O)COCCC2CCN(c3ccc(C(=O)N[C@H]4C(C)(C)[C@H](Oc5ccc(C#N)c(Cl)c5)C4(C)C)cc3)CC2)C(C)(C)C)cc1 [Example 404],–,DC50 [6]: < 50 nM; Dmax [5]: > 71%
< 50 nM,> 71%,"Cc1nc(O[C@H]2C(C)(C)[C@H](NC(=O)c3ccc(N4CCN(CCOCC(=O)N[C@H](C(=O)N5C[C@H](O)C[C@H]5C(=O)N[C@@H](C)c5ccc(-c6scnc6C)cc5)C(C)(C)C)CC4)nc3)C2(C)C)ccc1C#N [Example 682, N-((1r,3r)-3-((5-cyano-6-methylpyridin-2-yl)oxy)-2,2,4,4-tetramethylcyclobutyl)-6-(4-(2-(2-(((S)-1-((2S,4R)-4-hydroxy-2-(((S)-1-(4-(4-methylthiazol-5-yl)phenyl)ethyl)carbam-oyl)pyrrolidin-1-yl)-3,3-dimethyl-1-oxobutan-2-yl)amino)-2-oxoethoxy)ethyl)pipera-zin-1-yl)nicotinamdie]",–,–
–,–,Cc1ncsc1-c1ccc([C@H](C)NC(=O)[C@@H]2C[C@@H](O)CN2C(=O)[C@@H](NC(=O)COCCNc2ccc(-c3ccc(C(=O)N[C@H]4C(C)(C)[C@H](Oc5ccc(C#N)c(Cl)c5)C4(C)C)cc3)cn2)C(C)(C)C)cc1 [Example 445],–,DC50 [3]: < 50 nM; Dmax [4]: > 71%

Compound,DC50 [1],Dmax [2],"Dmax (VCaP, read-out: VCaP Dmax (%))",further results
"Cc1ncsc1-c1ccc([C@H](C)NC(=O)[C@@H]2C[C@@H](O)CN2C(=O)[C@@H](NC(=O)CN2CCC(CN3CCN(c4ccc(C(=O)N[C@H]5C(C)(C)[C@H](Oc6ccc(C#N)c(Cl)c6)C5(C)C)cn4)CC3)CC2)C(C)(C)C)cc1 [Example 825, N-((1r,3r)-3-(3-chloro-4-cyanophenoxy)-2,2,4,4-tetramethylcyclobutyl)-6-(4-((1-(2-(((S)-1-((2S,4R)-4-hydroxy-2-(((S)-1-(4-(4-methylthiazol-5-yl)phenyl)ethyl)carbamoyl)pyrrolidin-1-yl)-3,3-dimethyl-1-oxobutan-2-yl)amino)-2-oxoethyl)piperidin-4-yl)methyl)piperazin-1-yl)nicotinamide]",< 50 nM,–,> 71%,–
"Cc1ncsc1-c1ccc([C@H](C)NC(=O)[C@@H]2C[C@@H](O)CN2C(=O)[C@@H](NC(=O)CN2CCN(CCCc3ccc(C(=O)N[C@H]4C(C)(C)[C@H](Oc5ccc(C#N)c(Cl)c5)C4(C)C)cc3)[C@H](CO)C2)C(C)(C)C)cc1 [Example 824, (2S,4R)-1-((S)-2-(2-((S)-4-(3-(4-(((1r,3S)-3-(3-chloro-4-cyanophenoxy)-2,2,4,4-tetramethylcyclobutyl)carbamoyl)phenyl)propyl)-3-(hydroxymethyl)piperazin-1-yl)acetamido)-3,3-dimethylbutanoyl)-4-hydroxy-N-((S)-1-(4-(4-methylthiazol-5-yl)phenyl)ethyl) pyrrolidine-2-carboxamide]",< 50 nM,–,> 71%,–
